Test results reported in US9901536B2, “Composition for improving skin, containing pomegranate concentrate as active ingredient” (HLSCIENCE CO., LTD., priority 2014, dated 2018).
“And” between values parts separate entries of the source, which are not always exact repeats. Equal values may be shown once. Blank lines part the entries; values can stand above or below the compound they belong to.

Experiments:
[1] = test system: MMP-1; assay: Inhibition of UV-induced MMP-1 expression in HDF-N cells; type: cell-based, human; conditions: UVA 5 J/cm^2, 1 μM
Procedure: (§1) For testing of wrinkle improvement, normal human primary dermal fibroblasts, neonatal (HDF-N) derived from the human neonatal foreskin were used. The cells were seeded onto the bottom of a culture dish and cultured at 37° C. in a 5% carbon dioxide incubator after adding the fibroblast basal medium (FBM, Lonza, CC-3131) containing 0.1% insulin, 0.1% rhFGF, 0.1% gentamicin and 2% FBS.
The effect of the test solution on UV-induced MMP-1 expression was evaluated in order to evaluate the wrinkle-improving effect of the sample by measuring the activity of matrix metalloproteinase (MMP-1) by immuno-ELISA assay. HDF-N cells were seeded onto a 24-well plate with 2×10^4 cells/well and then cultured for 24 hours. 24 hours later, after discarding the medium and washing with DPBS, 200 μL of DPBS was added and 5 J/cm^2 of UV-A was irradiated. After treating the cells with the sample diluted to an adequate concentration, the cells were cultured for 24 hours. Then, the culture medium was taken and the quantity of MMP-1 was measured with the human total MMP-1 ELISA kit (R&D Systems, DY901). The measured quantity of MMP-1 was calibrated with the total protein quantity.

[2] = test system: hyaluronan synthesis in HaCaT cells; assay: Hyaluronan synthesis in keratinocytes by ELISA; type: cell-based, human; conditions: 20 mM, 24 h
Procedure: Human keratinocytes (HaCaT cells, ATCC) were seeded onto the bottom of a culture dish and cultured at 37° C. in a 5% carbon dioxide incubator after adding Dulbecco's modified Eagle's medium (DMEM, Welgene, Korea) containing penicillin (100 IU/mL), streptomycin (10 μg/mL) and 10% FBS.
The skin-moisturizing effect of the samples was evaluated by measuring the degree of hyaluronan synthesis in keratinocytes by ELISA. For this, the HaCaT cells were seeded onto a plate at 5×10^4 cells/well and cultured for 24 hours. 24 hours later, the cells were treated with the test samples diluted with the DMEM cell culture medium (without supplements) and cultured for 24 hours. The cultured cells were recovered and the quantity of hyaluronan was measured by hyaluronan ELISA (R&D Systems, DY3614). The cells adherent to the bottom were washed with PBS and lysed with 1 N NaOH to determine the total amount of proteins. Then, the quantity of hyaluronan per given quantity of proteins was calculated.
The protein quantity was measured using a Bio-Rad DC protein kit according to the Lowry method.

[3] = test system: elastase; assay: Elastase inhibition assay; type: biochemical, human; conditions: 10 μM
Procedure: The HDF-N fibroblasts were used to measure the effect of the test solution on elastase activity. For this, the cultured HDF-N cells were treated with 0.2 M Tris-HCl (pH 8.0) containing 0.1% Triton X-100 and lysed by sonication. After centrifuging at 3,000 rpm for 20 minutes and taking the supernatant, the activity of the enzyme was measured by quantifying it and the total protein quantity. For measurement of the elastase activity, the homogenized fibroblasts were treated with 200 μg/mL elastase, 0.2 M Tris-HCl buffer and the sample at different concentrations. After adding 50 mM STANA, a substrate specific for elastase, and incubating at 37° C., absorbance was measured at 405 nm. The degree of elastase activity inhibition was compared with a control group not treated with the test solution. Phosphoramidon was used as a positive control group.

[4] = test system: procollagen synthesis in HDF-N cells; assay: Procollagen synthesis (PIP EIA) in HDF-N cells; type: cell-based, human; conditions: 10 ng/ml, 24 h
Procedure: as §1
In order to measure the effect of promoting procollagen synthesis of the test solution, HDF-N cells were seeded onto a 48-well plate with 1×10^4 cells/well and then cultured for 24 hours. Then, after maintaining a starvation state for 24 hours, the cells were treated with the test solution diluted with the cell culture medium FBM (without supplements) at different concentrations and then cultured for 24 hours. The cultured cells were recovered and the quantity of procollagen was measured using the procollagen type I c-peptide (PIP) EIA kit (Takara, MK101). The cells adherent to the bottom were washed with PBS and lysed with 1 N NaOH to determine the total amount of proteins. Then, the quantity of procollagen per given quantity of proteins was calculated.

[5] = test system: melanin synthesis in Melan-a cells; assay: Inhibition of melanin synthesis in Melan-a cells; type: cell-based, mouse; conditions: 100 μM, 6 days
Procedure: For evaluation of skin-whitening effect, Melan-a cells derived from C57BL/6J (black, a/a) mouse, provided by Dr. Dorothy C Benette (St George's Hospital, London, UK), were used as an immortalized cell line (Bennett D C, Cooper P J, Hart I R. A line of non-tumorigenic mouse melanocyte, syngeneic with the B16 melanoma and requiring a tumor promoter for growth. Int J Cancer 1987; 39: 414-418). The cells were cultured at 37° C. in a 5% carbon dioxide incubator after adding the RPMI 1640 medium containing 10% fetal bovine serum, 50 U/mL penicillin, 50 μg/mL streptomycin, 200 nM phorbol 12-myristate 13-acetate (PMA).
Melan-a cells were seeded onto a 24-well plate with 3×10^4 cells/well. After culturing the cells in an incubator for 24 hours so that the cells adhered well to the plate, the test solution diluted with a culture medium to different concentrations were added to the respective wells. The test sample was treated once in 3 days, for a total of 6 days. […] The cells were lysed with 1 N NaOH and then centrifuged. After separating the supernatant, the total amount of proteins was quantified by measuring absorbance at 405 nm. The melanin content was determined from the protein quantity.

Compound: CC1=C(/C=C/C(C)=C/C=C/C(C)=C/C(=O)O)C(C)(C)CCC1 [Retinoic acid]
MMP-1 production, % UV− [1]: 171.68 ± 10.422 % UV−
MMP-1 production, % UV− ([1]; listed as retinoic acid): 171.6 % UV−

Compound: CC(=O)N[C@H]1C(O)O[C@H](CO)[C@@H](O)[C@@H]1O (stereo partly drawn) [NAG, N-Acetyl-D-glucosamine]
hyaluronan, % control [2]: 224.8 % control and 224.85 ± 16.937 % control

elastase activity, % control [3]: 74.90 ± 5.962 % control
elastase activity, % control ([3]; listed as phosphoramidon): 74.9 % control
Compound: CC(C)C[C@H](NP(=O)(O)O[C@@H]1O[C@@H](C)[C@H](O)[C@@H](O)[C@H]1O)C(=O)N[C@@H](Cc1c[nH]c2ccccc12)C(=O)O [Phosphoramidon]

Compound: Transforming growth factor-β [TGF-β]
procollagen production, % control [4]: 150.8 % control and 150.88 ± 5.366 % control

Compound: OC[C@H]1O[C@@H](Oc2ccc(O)cc2)[C@H](O)[C@@H](O)[C@@H]1O [Arbutin]
melanin content, % control [5]: 73.54 ± 5.397 % control
melanin content, % control ([5]; listed as arbutin): melanin synthesis was inhibited
